Assay results taken from US11110088B2, “Imidazopyrazine inhibitors of Bruton's tyrosine kinase” (Acerta Pharma B.V., priority 2015, dated 2021).

Legend:
Txk = Txk (Homo sapiens (Human), UniProt P42681); test: TXK enzyme activity, IMAP assay; assay type: biochemical; conditions: 60 min pre-incubation; 1 μM ATP
Protocol: TXK enzyme activity is measured using the IMAP (immobilized metal ion affinity-based fluorescence polarization) assay as outlined below.
TXK enzyme (Millipore #14-761), is diluted to 2.5 U/mL in KR buffer (10 mM Tris-HCl, 10 mM MgCl2, 0.01% Tween-20, 0.1% NaN3, 1 mM DTT, 2 mM MnCl2, pH 7.5).
(§1) Serial dilutions log 10 from 2 mM to 63.2 nM of test compounds are made in 100% DMSO. The dilutions in DMSO are then diluted 50-fold in KR-buffer. Final compound concentration range in the assay ranged from 10 μM to 0.316 nM.
The assay is performed as follows: 5 μL/well of test compound in KR buffer (final DMSO concentration in the assay is 1%) is mixed with 5 μL/well of 2.5 U/mL TXK enzyme (final concentration in the assay is 0.625 U/mL (4.4 nM)). Test compounds and TXK enzyme are pre-incubated 60 minutes at room temperature, before adding 5 μL/well of 200 nM Fluorescin labeled substrate peptide (Blk/Lyntide substrate #R7188, Molecular Devices) in KR-buffer. Final peptide substrate concentration in assay is 50 nM. […] Following incubation for 2 hours at room temperature the enzyme reaction is stopped by adding 40 μL/well IMAP Progressive Binding Solution (according to suppliers (Molecular Devices) protocol using 60% 1× buffer A and 40% 1× buffer B with 800× diluted beads (Progressive Binding System, Molecular Devices). After 60 min incubation at room temperature in the dark the FP signal is read. Fluorescence at 535 nm is measured using parallel and perpendicular filters to determine differences in rotation due to binding of the phosphorylated substrate peptide to the beads. Values are calculated as percentage of the difference in readout (ΔmPi) of the controls with and without ATP. IC50 values are determined by curve fitting of the experimental results using Activity Base.

ITK = ITK (Homo sapiens (Human), UniProt Q08881); test: ITK enzyme activity, IMAP assay; assay type: biochemical; conditions: 60 min pre-incubation; 5 μM ATP
Protocol: ITK enzyme activity is measured using the IMAP (immobilized metal ion affinity-based fluorescence polarization) assay as outlined below.
ITK enzyme (Millipore #14-660M) is diluted to 0.2 U/mL in KR buffer (10 mM Tris-HCl, 10 mM MgCl2, 0.01% Tween-20, 0.1% NaN3, 1 mM DTT, 2 mM MnCl2, pH 7.5)
(§2) The dilutions in DMSO are then diluted 50-fold in KR-buffer.
(§3) Test compounds and ITK enzyme are pre-incubated 60 minutes at room temperature, before adding 5 μL/well of 200 nM Fluorescin labeled substrate peptide (Blk/Lyntide substrate #R8124, Molecular Devices) in KR-buffer. Final peptide substrate concentration in assay is 50 nM. […] IC50 values are determined by curve fitting of the experimental results using Activity Base.

[1] = test system: CD69 in CD19+ B cells of anti-IgM stimulated PBMCs; test: Human peripheral blood mononuclear cell (PBMC) CD69 assay; assay type: cell-based; conditions: 2 h compound, then anti-IgM 18 hours
Protocol: Example 44—Human Peripheral Blood Mononuclear Cell (PBMC) CD69 Assay
Whole blood was collected in heparin-coated Vacutainer tubes (BD Biosciences, San Jose, Calif.) and used for isolation of PBMCs using Ficoll-Hypaque (Pharmacia, Uppsala, Sweden). Isolated PBMCs were cryopreserved in 90% FCS/10% DMSO until later use.
Cells from cryogenic storage were thawed in a 37° C. water bath, diluted with RPMI/1% FCS, washed 2 times, and then plated at 1×10^5 cells per well in RPMI/10% FCS.
Serial dilutions log 10 from 10 mM to 316 nM of test compounds are made in 100% DMSO, followed by a 100-fold dilution into RPMI/1% FCS. For each well, 10 μL was then transferred to the deep well plate containing 90 μL of PBMC cells. Final compound concentration range in the assay ranged from 10 μM to 0.316 nM, with a final DMSO concentration of 0.1%. PBMCs are then incubated for 2 h at 37° C. in presence or absence of test compounds, prior to stimulation with goat F(ab′)2 anti-IgM (Southern Biotech, #2022-14, final concentration in assay 5 μg/mL) for 18 hours.
Following stimulation with anti-IgM, PBMCs were incubated on ice for 30 min with anti-CD69-FITC, anti-CD19-BV421 (BD Biosciences #555530 and #562440, respectively) and 7AAD (Life Technologies #A1310). Flow cytometry was performed and fluorescence values were obtained from the CD69-FITC channel in CD19+ gated life B cells. ECso values are determined by curve fitting of the experimental results using GraphPad Prism.

BTK = BTK (Homo sapiens (Human), UniProt Q06187); test: BTK enzyme activity, IMAP assay; assay type: biochemical; conditions: 60 min pre-incubation; 5 μM ATP
Protocol: BTK enzyme activity is measured using the IMAP (immobilized metal ion affinity-based fluorescence polarization) assay as outlined below.
BTK enzyme (His-BTK (Millipore catalog #14-552)), is diluted to 0.4 U/mL in KR buffer (10 mM Tris-HCl, 10 mM MgCl2, 0.01% Tween-20, 0.05% NaN3, 1 mM DTT, 2 mM MnCl2, pH 7.2).
as §1
The assay is performed as follows: 5 μL/well of test compound in KR buffer (final DMSO concentration in the assay is 1%) is mixed with 5 µl/well of 0.4 U/mL BTK enzyme (final concentration in the assay is 0.1 U/mL). Test compounds and BTK enzyme are pre-incubated 60 minutes at room temperature, before adding 5 μL/well of 200 nM Fluorescin labeled substrate peptide (Blk/Lyntide substrate, e.g. #R7188/#R7233, Molecular Devices) in KR-buffer. Final peptide substrate concentration in assay is 50 nM. […] Following incubation for 2 hours at room temperature the enzyme reaction is stopped by adding 40 μL/well IMAP Progressive Binding Solution (according to suppliers (Molecular Devices) protocol using 75% 1× buffer A and 25% 1× buffer B with 1:600 Progressive Binding Solution). After 60 min incubation at room temperature in the dark the FP signal is read. Fluorescence at 535 nm is measured using parallel and perpendicular filters to determine differences in rotation due to binding of the phosphorylated substrate peptide to the beads. Values are calculated as percentage of the difference in readout (ΔmPi) of the controls with and without ATP. IC50 values are determined by curve fitting of the experimental results using Activity Base.

Bmx = Bmx (Homo sapiens (Human), UniProt P51813); test: BMX enzyme activity, IMAP assay; assay type: biochemical; conditions: 60 min pre-incubation; 5 μM ATP
Protocol: BMX enzyme activity is measured using the IMAP (immobilized metal ion affinity-based fluorescence polarization) assay as outlined below.
as §2
as §3, with “BMX” for “ITK”, “#R7188,” for “#R8124,”

EGFR WT = EGFR WT (Homo sapiens (Human), UniProt P00533); test: EGFR enzyme activity, IMAP assay; assay type: biochemical; conditions: 60 min pre-incubation; 2 μM ATP
Protocol: EGFR enzyme activity is measured using the IMAP (immobilized metal ion affinity-based fluorescence polarization) assay as outlined below.
EGFR enzyme (Invitrogen catalog #PR7295B), is diluted to 2.5 μg/mL in KR buffer (10 mM Tris-HCl, 10 mM MgCl2, 0.01% Tween-20, 0.1% NaN3, 1 mM DTT, 2 mM MnCl2, pH 7.5).
Final peptide substrate concentration in assay is 50 nM. […] Following incubation for 60 min at room temperature in the dark the enzyme reaction is stopped by adding 40 μL/well IMAP Progressive Binding Solution (according to suppliers (Molecular Devices) protocol using 20% 1× buffer A and 80% 1× buffer B with 600× diluted beads). After 60 min incubation at room temperature in the dark the FP signal is read. […] Values are calculated as percentage of the difference in readout (ΔmPi) of the controls with and without ATP. IC50 values are determined by curve fitting of the experimental results using GraphPad Prism6.

Chain of EGFR WT (P00533 25-1210): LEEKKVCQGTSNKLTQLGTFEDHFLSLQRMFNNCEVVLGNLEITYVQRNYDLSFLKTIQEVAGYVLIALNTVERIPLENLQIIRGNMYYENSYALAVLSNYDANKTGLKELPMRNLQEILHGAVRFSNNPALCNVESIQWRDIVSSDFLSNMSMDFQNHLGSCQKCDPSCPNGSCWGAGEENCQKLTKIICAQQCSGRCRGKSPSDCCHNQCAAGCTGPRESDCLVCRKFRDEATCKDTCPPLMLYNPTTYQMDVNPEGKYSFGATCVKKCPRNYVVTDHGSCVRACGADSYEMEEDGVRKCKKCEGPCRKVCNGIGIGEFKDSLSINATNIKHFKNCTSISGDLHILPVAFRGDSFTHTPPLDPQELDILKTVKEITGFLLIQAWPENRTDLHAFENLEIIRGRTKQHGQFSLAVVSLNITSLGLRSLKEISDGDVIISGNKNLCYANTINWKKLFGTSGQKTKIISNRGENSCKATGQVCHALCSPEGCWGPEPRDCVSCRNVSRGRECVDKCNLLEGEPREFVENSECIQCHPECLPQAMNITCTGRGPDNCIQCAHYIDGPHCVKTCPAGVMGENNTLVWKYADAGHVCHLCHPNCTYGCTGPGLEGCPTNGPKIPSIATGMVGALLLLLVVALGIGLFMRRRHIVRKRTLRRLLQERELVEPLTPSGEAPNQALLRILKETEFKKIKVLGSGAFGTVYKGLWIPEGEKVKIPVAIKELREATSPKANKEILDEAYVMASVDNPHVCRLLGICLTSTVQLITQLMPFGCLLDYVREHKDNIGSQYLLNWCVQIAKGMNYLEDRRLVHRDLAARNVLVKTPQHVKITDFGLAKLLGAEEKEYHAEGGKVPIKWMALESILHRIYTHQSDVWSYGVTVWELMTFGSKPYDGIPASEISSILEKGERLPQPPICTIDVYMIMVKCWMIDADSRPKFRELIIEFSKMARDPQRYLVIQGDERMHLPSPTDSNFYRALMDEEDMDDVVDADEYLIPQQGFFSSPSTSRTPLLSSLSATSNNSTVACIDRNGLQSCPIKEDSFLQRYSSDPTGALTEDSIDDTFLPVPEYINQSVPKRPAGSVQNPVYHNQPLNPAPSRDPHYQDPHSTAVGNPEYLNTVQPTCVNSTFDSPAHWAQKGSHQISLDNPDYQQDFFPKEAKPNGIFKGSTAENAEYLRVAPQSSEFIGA
Chain of Txk (P42681 whole entry): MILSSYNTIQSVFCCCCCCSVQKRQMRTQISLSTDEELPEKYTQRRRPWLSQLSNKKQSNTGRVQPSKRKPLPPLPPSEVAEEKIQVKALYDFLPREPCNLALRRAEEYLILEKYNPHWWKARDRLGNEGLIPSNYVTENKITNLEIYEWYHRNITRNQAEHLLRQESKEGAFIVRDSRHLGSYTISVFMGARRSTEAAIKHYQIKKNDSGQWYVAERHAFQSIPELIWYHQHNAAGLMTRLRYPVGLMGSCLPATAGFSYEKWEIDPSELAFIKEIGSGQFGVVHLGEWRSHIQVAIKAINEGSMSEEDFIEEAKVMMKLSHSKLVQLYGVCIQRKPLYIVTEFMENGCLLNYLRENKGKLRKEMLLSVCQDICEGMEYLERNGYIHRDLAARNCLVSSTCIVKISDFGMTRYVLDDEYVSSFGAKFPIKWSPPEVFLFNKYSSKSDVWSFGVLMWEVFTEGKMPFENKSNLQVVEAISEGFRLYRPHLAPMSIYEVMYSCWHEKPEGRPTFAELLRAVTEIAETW
Chain of BTK (Q06187 whole entry): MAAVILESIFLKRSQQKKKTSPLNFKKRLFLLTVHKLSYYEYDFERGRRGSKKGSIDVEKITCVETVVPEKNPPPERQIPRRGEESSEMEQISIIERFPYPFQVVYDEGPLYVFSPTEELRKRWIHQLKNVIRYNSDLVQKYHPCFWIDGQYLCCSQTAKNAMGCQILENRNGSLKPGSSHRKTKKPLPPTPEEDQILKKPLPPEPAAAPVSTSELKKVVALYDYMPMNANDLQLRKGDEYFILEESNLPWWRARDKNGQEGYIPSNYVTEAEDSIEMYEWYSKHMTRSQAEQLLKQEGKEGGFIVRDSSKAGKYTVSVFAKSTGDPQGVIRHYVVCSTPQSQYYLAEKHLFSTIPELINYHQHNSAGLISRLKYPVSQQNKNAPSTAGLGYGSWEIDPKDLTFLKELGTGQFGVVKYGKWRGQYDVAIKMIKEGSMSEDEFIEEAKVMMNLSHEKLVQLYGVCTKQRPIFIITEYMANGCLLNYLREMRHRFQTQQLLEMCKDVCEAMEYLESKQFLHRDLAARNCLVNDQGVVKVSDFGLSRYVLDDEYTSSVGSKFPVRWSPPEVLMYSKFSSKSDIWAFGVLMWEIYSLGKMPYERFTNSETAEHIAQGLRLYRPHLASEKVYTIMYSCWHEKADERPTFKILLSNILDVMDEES
Chain of ITK (Q08881 whole entry): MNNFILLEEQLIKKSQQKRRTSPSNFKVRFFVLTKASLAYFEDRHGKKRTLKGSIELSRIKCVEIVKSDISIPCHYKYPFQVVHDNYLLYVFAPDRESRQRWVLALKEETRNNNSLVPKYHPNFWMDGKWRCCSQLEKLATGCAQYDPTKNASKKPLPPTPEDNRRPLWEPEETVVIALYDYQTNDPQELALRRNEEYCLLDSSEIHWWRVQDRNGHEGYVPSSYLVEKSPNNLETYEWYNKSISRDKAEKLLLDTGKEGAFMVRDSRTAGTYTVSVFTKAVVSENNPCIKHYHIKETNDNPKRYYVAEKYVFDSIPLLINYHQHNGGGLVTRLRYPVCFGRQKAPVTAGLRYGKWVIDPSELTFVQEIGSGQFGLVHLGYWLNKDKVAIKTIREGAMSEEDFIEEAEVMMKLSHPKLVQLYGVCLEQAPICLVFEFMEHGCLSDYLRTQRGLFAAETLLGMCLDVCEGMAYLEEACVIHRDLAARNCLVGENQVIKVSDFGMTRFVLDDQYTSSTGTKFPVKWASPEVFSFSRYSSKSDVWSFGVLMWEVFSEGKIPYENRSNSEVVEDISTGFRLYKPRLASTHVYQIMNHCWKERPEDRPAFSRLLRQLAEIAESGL
Chain of Bmx (P51813 whole entry): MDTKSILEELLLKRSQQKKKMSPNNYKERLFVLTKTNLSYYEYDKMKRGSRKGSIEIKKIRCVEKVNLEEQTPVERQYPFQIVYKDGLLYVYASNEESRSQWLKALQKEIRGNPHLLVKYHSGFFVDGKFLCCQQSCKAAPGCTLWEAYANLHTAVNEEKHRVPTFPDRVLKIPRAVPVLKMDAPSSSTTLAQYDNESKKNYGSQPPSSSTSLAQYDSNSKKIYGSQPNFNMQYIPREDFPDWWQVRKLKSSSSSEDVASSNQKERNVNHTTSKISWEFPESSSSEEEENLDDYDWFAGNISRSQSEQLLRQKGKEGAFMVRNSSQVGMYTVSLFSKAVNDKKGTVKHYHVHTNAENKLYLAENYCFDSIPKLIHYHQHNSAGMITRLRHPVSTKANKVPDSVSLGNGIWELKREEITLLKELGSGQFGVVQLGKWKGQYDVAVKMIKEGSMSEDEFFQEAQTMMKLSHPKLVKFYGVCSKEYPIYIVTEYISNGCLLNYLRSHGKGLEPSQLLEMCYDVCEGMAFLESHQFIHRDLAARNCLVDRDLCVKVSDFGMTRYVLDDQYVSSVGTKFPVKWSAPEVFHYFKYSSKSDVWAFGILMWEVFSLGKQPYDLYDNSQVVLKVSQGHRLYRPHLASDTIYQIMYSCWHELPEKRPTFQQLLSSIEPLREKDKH

| Compound | IC50 (Txk) [nM] | IC50 (ITK) [nM] | IC50 (BTK) [nM] | IC50 (Bmx) [nM] | IC50 (EGFR WT) [nM] | EC50 ([1]; Homo sapiens, PBMC) [nM] | EC50 ([1]; PBMC) [nM] | EC50 [1] [nM] |
| --- | --- | --- | --- | --- | --- | --- | --- | --- |
| CC#CC(=O)N1CCC[C@H]1c1nc(-c2ccc(C(=O)Nc3ccc(C)cn3)c(OC)c2)c2c(N)nccn12 | 11 | > 1000 | 6.7 | 11 | > 1000 | 5.2 |  |  |
| CC#CC(=O)N1CCC[C@H]1c1nc(-c2ccc(C(=O)Nc3cscn3)cc2)c2c(N)nccn12 | 33.5 | > 1000 | 6.3 |  |  |  | 9.5 |  |
| CC#CC(=O)N1CCC[C@H]1c1nc(-c2ccc(C(=O)Nc3nccs3)c(OC)c2)c2c(N)nccn12 | 7.1 | > 1000 | 3.9 | 12 | > 1000 | 11 |  |  |
| CC#CC(=O)N(C)[C@@H](C)c1nc(-c2ccc(C(=O)Nc3ccc(C)cn3)c(OC)c2)c2c(N)nccn12 [drawing 83] | 12 |  | 4.2 | 16 |  | 3.7 |  |  |
| COC/C=C/C(=O)N(C)[C@@H](C)c1nc(-c2ccc(C(=O)Nc3ccc(C)cn3)cc2)c2c(N)nccn12 | 14 |  | 11 | 15 |  | 3.5 |  |  |
| CC#CC(=O)N(C)[C@@H](C)c1nc(-c2ccc(C(=O)Nc3cc(C(F)(F)F)ccn3)c(OC)c2)c2c(N)nccn12 | 13 | > 1000 | 3.5 | 7.9 | > 1000 | 2.7 |  |  |
| CC#CC(=O)N(C)[C@@H](C)c1nc(-c2ccc(C(=O)Nc3ccc(C)cn3)c(OC)c2)c2c(N)nccn12 [drawing 89] | 5.1 |  | 5.1 | 6.8 |  |  |  | 5.1 |

These reach a lower IC50 (Txk). Values come first.

| IC50 (Txk) [nM] | IC50 (ITK) [nM] | IC50 (BTK) [nM] | IC50 (Bmx) [nM] | IC50 (EGFR WT) [nM] | Compound | EC50 ([1]; Homo sapiens, PBMC) [nM] | EC50 ([1]; PBMC) [nM] | EC50 [1] [nM] |
| --- | --- | --- | --- | --- | --- | --- | --- | --- |
| 4.7 | > 1000 | 2.2 | 3.5 | > 1000 | CC#CC(=O)N[C@@H](C)c1nc(-c2ccc(C(=O)Nc3cc(C(F)(F)F)ccn3)c(OC)c2)c2c(N)nccn12 | 1.4 |  |  |
| 3.9 | 254 | 1.8 | 4.5 | 354 | CC#CC(=O)N(C)[C@@H](C)c1nc(-c2ccc(C(=O)Nc3ccc(C)cn3)cc2)c2c(N)nccn12 | 1.7 |  |  |
| 3.7 | > 1000 | 2.1 | 7.5 | 123 | CC#CC(=O)N(C)[C@@H](C)c1nc(-c2ccc(C(=O)Nc3ccccn3)cc2)c2c(N)nccn12 | 1.9 |  |  |
| 3 | > 1000 | 2 | 4.2 | > 1000 | CC#CC(=O)N(C)[C@@H](C)c1nc(-c2ccc(C(=O)Nc3ccccn3)c(OC)c2)c2c(N)nccn12 | 2.4 |  |  |
| 2.7 | > 1000 | 3.9 | 3 | > 1000 | COC/C=C/C(=O)N[C@@H](C)c1nc(-c2ccc(C(=O)Nc3ccc(C)cn3)c(OC)c2)c2c(N)nccn12 | 1.9 |  |  |
| 2.1 | 287 | 1.6 | 2.9 |  | CC#CC(=O)N[C@@H](C)c1nc(-c2ccc(C(=O)Nc3ccc(C)cn3)cc2)c2c(N)nccn12 | 1 |  |  |
| 2 | > 1000 | 1.6 | 3.1 | > 1000 | CC#CC(=O)N[C@@H](C)c1nc(-c2ccc(C(=O)Nc3ccccn3)c(OC)c2)c2c(N)nccn12 | 1.3 |  |  |
| 1.8 | 119 | 1.8 | 1.9 | 327 | CC#CC(=O)N[C@@H](C)c1nc(-c2ccc(C(=O)Nc3cc(C(F)(F)F)ccn3)cc2)c2c(N)nccn12 | 0.7 |  |  |
| 1.7 | > 1000 | 1.9 | 2.4 | > 1000 | CC#CC(=O)N[C@@H](C)c1nc(-c2ccc(C(=O)Nc3ccc(C)cn3)c(OC)c2)c2c(N)nccn12 | 1.3 |  |  |
| 1.5 | 478 | 2.4 | 2.9 | 360 | COC/C=C/C(=O)N[C@@H](C)c1nc(-c2ccc(C(=O)Nc3ccc(C)cn3)cc2)c2c(N)nccn12 | 4.2 |  |  |
